# PubChem BioAssay AID1996
# Settings: buffer; pH 7.4; 200.0 µM
row,Compound,solubility kinetic [µg/mL]
1,Cc1c(/C=N/O)c2ccccn2c1C(=O)c1ccc(F)cc1,5.5
2,Cc1ccc(NC(=O)C2=CN3CCS(=O)(=O)N=C3C=C2)cc1,12.7
3,Cc1cc(C)nc(Nc2cccc(C(F)(F)F)c2)n1.Cl,1.8
4,Cc1ccc(S(=O)(=O)N2C(=O)CCC2C(N)=O)cc1 (stereo unspecified),> 42.3
5,CCN(CC(=O)N1CCCC1)S(=O)(=O)c1ccccc1,> 44.5
6,O=C(CN1C(=O)c2ccccc2S1(=O)=O)Nc1cccc(S(=O)(=O)N2CCCCC2)c1,34.4
7,Cc1cnc(NC(=O)/C=C/c2ccc(Br)o2)s1,0.8
8,CC(=O)Nc1ccc(S(=O)(=O)N2CCN3CCCC3C2)cc1 (stereo unspecified),> 48.5
9,NC(=O)c1cc([N+](=O)[O-])cc2c1C=Cc1ccccc1O2,4.6
10,CC(=O)Nc1ccc(-c2nc3cc(Cl)ccc3o2)cc1,< 0.3
11,Clc1cccc(CN2CCSCC2)c1,3.8
12,Cc1nc(N2CCOCC2)[nH]c(=O)c1[N+](=O)[O-],33.1
13,Cc1cc(C)nc(/N=c2/ssnc2Cl)c1,1.8
14,COc1ccc(S(=O)(=O)n2cccc2)cc1,4.2
15,Cc1nnc(SCC(=O)NC2CCCCC2)n1N,> 40.4
16,O=C(Nc1ccccc1Cl)OC1CCCCC1,< 0.5
17,Cc1noc(C(=O)N(C)c2ccccc2)c1Cl,33.8
18,O=Cc1c(C(=O)O)n(Cc2ccccc2F)c2ccccc12,> 44.6
19,Cc1cc(Cl)n2c(nc3cc(F)c(F)cc32)c1C#N,4.7
20,CN(C(=S)NC(=O)c1ccc(Cl)cc1)C1CCCCC1,6.4
21,O=C(CSc1nncn1-c1ccccc1)N1CCCC1,> 43.3
22,C=CCn1c(SCC(N)=O)nnc1-c1cnccn1,> 41.4
23,Cc1cc(C)c2c(n1)sc1c(N3CCCCC3)ncnc12,< 0.2
24,Cc1c(C(=O)N/N=C/c2ccoc2)cccc1[N+](=O)[O-],> 41
25,c1cc(CCCc2ccncc2)ccn1,> 29.7
26,Nc1ccc(C(=O)NCC2(c3ccccc3)CCCC2)cc1,17.8
27,N#Cc1c(-c2ccccc2)[nH]c(=O)[nH]c1=O,> 32

row,Compound,solubility kinetic [µg/mL]
1,CCC[C@@H]1C[C@@H](C(=O)N[C@@H]([C@H]2O[C@H](SC)[C@H](O)[C@@H](O)[C@@H]2O)[C@@H](C)O)N(C)C1.Cl,> 66.5
2,CC(C)c1ccc(/C=C2\NC(=O)NC2=O)cc1,13.9
3,Cc1nn(C)c(Cl)c1CN1CCN(C2CCCC2)C(CCO)C1 (stereo unspecified),> 51.1
4,CC1=CC(C)(C)NC(=S)N1c1cc(C)cc(C)c1,8.7
5,O=C1CN(S(=O)(=O)c2cc(Br)ccc2Br)CCN1,> 59.7
6,O=C(c1cc2cc(Cl)ccc2o1)N1CCCC1,29.6
7,CN1CCN(c2nc(-c3ccccc3O)nc3ccccc23)CC1,1
8,Cc1nc(SCC(=O)N2CCN(c3ccccn3)CC2)c(C#N)c(C)c1C,41.8
9,Cn1c(SCc2cccnc2)nc2c(c1=O)SCC2,> 43.7
10,N#CCSc1ccccc1NC(=O)CN1C(=O)C(=O)N(Cc2ccccc2)C1=O,43.3
11,Cc1ccccc1OCC(O)CN(CCO)Cc1ccccc1.Cl (stereo unspecified),40.4
12,CCOC(=O)N(C)S(=O)(=O)c1ccccc1[N+](=O)[O-],42.9
13,N=c1oc2ccc3ccccc3c2cc1C(N)=S,7.2
14,O=C(c1ccc2nccnc2c1)N1CCN(c2ccccc2)CC1,> 47.8
15,CC1CCCCN1CC(=O)c1c[nH]c2ccccc12 (stereo unspecified),> 38.5
16,Cc1onc(-c2ccccc2Cl)c1C(=O)N1CCC(C)CC1,> 47.8
17,Cc1noc(C)c1C(=O)Nc1nc2ccc(Cl)cc2s1,2.1
18,O=C(O)C1CC(c2ccccc2)=Nc2ccccc2S1 (stereo unspecified),9.8
19,Cc1onc(-c2ccccc2)c1-c1ccc(S(N)(=O)=O)cc1,> 47.2
20,CCN(CC)CC(=O)NCC1(c2ccccc2)CCCC1,40.9
21,O=C(Nc1ccc(S(=O)(=O)N2CCOCC2)cc1)c1cccnc1,> 52.1
22,CCC(C)n1c(C)cc(C(N)=O)c1C (stereo unspecified),26.8
23,O=C1NC(c2ccc(Cl)c([N+](=O)[O-])c2)Nc2ccccc21 (stereo unspecified),7.7
24,CC(CO)NCC12CC3CC(CC(C3)C1)C2.Cl (stereo unspecified),> 39
25,Cc1ccc(S(=O)(=O)N2C(=O)c3cccc4cccc2c34)cc1,3.7
26,S=C(NCc1cccs1)NCC1CCCO1 (stereo unspecified),> 38.5
27,CSc1nc2c(cc1C#N)C(=O)CC(C)(C)C2,10.3

# Further lines, results first:
row,solubility kinetic [µg/mL],Compound
1,> 39.4,Cc1ccc(CC(=O)NCCN2CCOCC2)cc1
2,> 36.5,CC(=O)c1cccc(NC(=O)c2ccc(C)o2)c1
3,3.1,O=C(COC(=O)c1ccc([N+](=O)[O-])cc1)NCCC1=CCCCC1
4,> 56.9,Nc1nc(SCC(=O)N2CCCC2)[nH]c(=O)c1NC(=O)c1cccs1
5,> 51.5,O=C(CCNC(=O)c1ccco1)Nc1ccccc1N1CCOCC1
6,6,Cc1cccc(C)c1OCC(=O)Nc1ccc(N2CCOCC2)cc1
7,39.5,COc1cccc(CNc2ccc(N3CCCCC3)cc2)c1OC
8,36.2,CC(C)(C)NC(=O)C(=O)NC(=O)c1c(F)cccc1Cl
9,> 53.8,O=C(Nc1ccc(OCC(=O)N2CCOCC2)cc1)c1ccccc1F
10,> 51.8,CCCn1c(SCC(=O)NC2CCCC2)nnc1-c1cccnc1
11,> 44.4,CC(C)NC[C@H](O)COc1cccc2ccccc12.Cl
12,6.5,Cc1ccccc1C(=O)NC1CCN(C(=O)NC2CCCCC2)CC1
13,> 42.9,CCOC(=O)c1ccc(NC(=O)c2ccc[n+]([O-])c2)cc1
14,> 60.4,CN(C)c1cccc(C(=O)Nc2ccc(S(=O)(=O)Nc3nccs3)cc2)c1
15,38.7,CC(C)C(=O)Nc1cc2c3c(c1)CCN3C(=O)CC2
16,1.9,O=C(Nc1nccs1)c1cccc2ccccc12
17,20.9,COCC(=O)Nc1ccc2c(c1)OCC(=O)N2Cc1ccc(C)cc1
18,57.2,CC(OC(=O)Cn1cc(C(F)(F)F)ccc1=O)C(=O)N(C)c1ccccc1 (stereo unspecified)
19,> 75.5,Cc1c(NS(=O)(=O)c2cc(C(=O)N3CCCC(C)C3)ccc2Cl)c(=O)n(-c2ccccc2)n1C (stereo unspecified)
20,> 27.3,CSc1ncc(C(C)=O)c(C)n1
21,35.4,COc1ccc(NC(=S)NCCNC(C)=O)cc1
22,9.9,CCCCNC(=O)Nc1ccc(C2SCCS2)cc1
23,0.4,Cc1ccc(CNC(=O)CCCc2cn(C)c3ccccc23)cc1

row,solubility kinetic [µg/mL],Compound
1,> 45.9,Cc1cccc(Cl)c1NC(=S)NCCc1ccccn1
2,< 0.3,COC(=O)C1=C(C)NC(=O)NC1c1ccc2ccccc2c1 (stereo unspecified)
3,> 49.5,CC(=O)Cc1nsc(NC(=O)c2ccc(Cl)cc2Cl)n1
4,> 53.9,CC(C)N(C(=O)COC(=O)CCC(=O)c1cccs1)c1ccccc1
5,5.9,CCCCCC(=O)Nc1ccc(-c2csc(N)n2)cc1
6,> 51.5,O=C(CN1C(=O)NC2(CCCCCC2)C1=O)NCCc1ccccc1
7,> 55,O=C(COC(=O)c1c(Cl)ccc(Cl)c1Cl)NCC1CCCO1 (stereo unspecified)
8,53.8,CCOP(=O)(OCC)C(NC(=O)c1ccc(OC)cc1)c1ccccc1 (stereo unspecified)
9,14.6,CN(CC(=O)Nc1ccc(Cl)cc1)C(=O)Cc1c(F)cccc1Cl
10,> 42.1,CC(C)(C)C(=O)NC(=S)Nc1cccc(C(=O)O)c1
11,3.7,COc1ccc(C(=O)NCc2cc3ccccc3n2C)cc1
12,> 48.7,COc1cc(C(=O)NCCC(=O)NC(C)C)cc(OC)c1OC
13,34.1,COc1cc([N+](=O)[O-])ccc1NC(=O)CN1CCc2cc(OC)c(OC)cc2C1
14,> 44.9,O=C(CNC(=O)COc1ccccc1)NCc1cccnc1
15,> 37.2,Cc1cc(C(=O)N/N=C2\CCCC(=O)C2)c(C)o1
16,> 43.6,Cc1ccc(S(=O)(=O)NCCc2ccncc2)cc1C
17,25.8,COc1ccccc1NC(=O)/C=C\c1ccco1
18,> 45.8,COc1ccccc1NC(=O)NCC1(N(C)C)CCCCC1
19,> 40.1,Cc1noc(C)c1C(=O)Nc1cccc2ncccc12
20,6.9,CCOc1ccc2nc(NC(=O)c3ccco3)sc2c1
21,34.8,CCOc1ccc(CN(C)CC(=O)NCc2ccccc2)cc1
22,> 44.7,CC(C)NC(=O)CN1CCN(C(=O)CCl)CC1.Cl
23,1.3,COc1ccccc1N1CCN(C(=S)NC(=O)/C=C/c2ccccc2)CC1

row,solubility kinetic [µg/mL],Compound
1,> 54.8,CCOCCCn1c(=NC(C)=O)c(C#N)cc2c(=O)n3ccccc3nc21
2,> 41.1,O=C(O)c1ccc2c(c1)C(=O)N(c1nccs1)C2=O
3,27.1,CC(C)(CNC(=O)CCC1CCCC1)CNC(=O)CCC1CCCC1
4,> 39.6,COC(=O)CCC(=O)NNC(=O)Cc1ccccc1
5,4.8,COc1ccc2oc(C(=O)Nc3nc(C)cs3)c(C)c2c1
6,30.8,CCOc1ccc(N2CC(C(=O)NCCc3ccc(F)cc3)CC2=O)cc1 (stereo unspecified)
7,> 56.9,CC1CCCN(C(=O)CN2C(=O)NC(C)(c3ccc4ccccc4c3)C2=O)C1 (stereo unspecified)
8,> 59.5,CCOc1ccc(C(=O)OC(C)C(=O)N2CCN(Cc3ccccc3)CC2)cc1 (stereo unspecified)
9,8.9,CCCN(C(=O)CCc1ccc(OC)cc1)c1c(N)n(Cc2ccccc2)c(=O)[nH]c1=O
10,> 47.2,Cc1cccc(C(=O)NCCC(=O)NCc2ccccc2F)c1
11,12,COc1ccc(CNC(=S)Nc2ccccc2Cl)cc1
12,39.9,NC(=O)COC(=O)c1cc(-c2ccco2)nc2ccccc12
13,3.9,CN(C)c1ccc(C(=O)NCCCSc2ccccc2)cc1
14,4.5,COc1cc(SC)ccc1C(=O)N1CCc2ccccc21
15,> 37,Cc1ccc(NC(=O)N2CCCCCC2)cc1C
16,> 46.1,CSc1ccccc1C(=O)OCC(=O)N1CCCCCC1
17,32.3,COc1cccc(Oc2nc(N)ncc2[N+](=O)[O-])c1
18,> 52,COc1ccc(C(=O)NCC(=O)OCC(=O)NCc2ccco2)cc1
19,19.7,N#Cc1ccccc1OCC(=O)Nc1ccc2c(c1)OCCO2
20,> 42.2,Cc1cc(=O)[nH]c(SCC(=O)N2CCCC(C)C2)n1 (stereo unspecified)
21,7.3,Cc1cc(C)c(C(=O)COC(=O)c2cccnc2Cl)c(C)c1
